From patent EP4574151A1, “INHIBITORS OF G12V-MUTATED RAS PROTEIN TO TREAT CANCER” (Personather Spolka Z Ograniczona Odpowiedzialnoscia, priority 2023, dated 2025)
“Also recorded” adds a separate entry of the source.

Experiments:
PER49 cell line = assay: Western Blot analysis of the RAS-controlled signal transduction pathway in a normal cell line; type: cell-based; conditions: normal PER49 cell line without KRASG12V; 10, 15 and 20 µM; 24 hours; serum-free; ERK, p-ERK, Akt, pAkt blots
From the text: Analysis of the impact of the studied compound on the signal transduction pathway controlled by RAS family proteins in normal cell lines based on Western Blot analysis.
The example illustrates the impact of the PER154A and PER160A molecules on the signal transduction pathway in the normal PER49 cell line.
• 1. PER49 cell line cells at 80-90% confluency were rinsed with phosphate-buffered saline without Mg2+ and Ca2+ ions. Remove PBS. • 2. Cells were detached from the vessel using Trypsin-EDTA (0.05%, 1x) for 1-3 minutes at 37°C. • 3. Cells were transferred to a 15 ml tube, centrifuged (200xg, 4 minutes) and suspended in RPMI1640 medium with 10% bovine serum and antibiotics. • 4. Cells were counted. • 5. 3x10^5cells were added to each well of a 6-well plate for adherent culture. • 6. The above medium was added and left for approximately 24 hours.
• 7. The cells were washed 2-3 times with buffered saline without Mg2+ and Ca2+ ions. Each time PBS was thoroughly removed. • 8.2 ml of RPMI1640 medium with antibiotics and without serum was added, and left for approximately 24 hours.
• 9. The cells were washed 2-3 times with a buffered saline solution without Mg2+ and Ca2+. PBS was thoroughly removed each time. • 10. […]

BALB/c mice = assay: Acute toxicity after oral administration (Acute Toxicity test TG425); type: in vivo; conditions: female BALB/c mice, oral by gastric probe, 40 mg of substance in corn oil, three mice, observed two weeks
From the text: The study was planned according to Acute Toxicity Test 425 (oral administration) - higher-lower-dose procedure, in accordance with the OECD regulation of October 3, 2008. The test procedure described in these guidelines is useful in minimizing the number of animals needed to estimate the acute toxicity after oral administration of potential drugs. In addition to the LD50 assessment and confidence intervals, the test allows for the observation of signs of toxicity. For this purpose, an experiment was agreed upon with the Local Ethics Committee for Animal Experimentation, using BALB/c mice. The TG425 method allows for the estimation of LD50 values with confidence intervals, and the results allow for the classification of substances according to the global harmonized system for the classification of chemicals that cause acute toxicity.
A sequential test, utilizing a maximum of 5 animals, was applied, which is known as the limit test. A test dose of either 2000 or uniquely 5000 mg/kg can be used. The testing procedures at 2000 and 5000 mg/kg differ slightly (see Sections 23-25 for the limit test at 2000 mg/kg and Sections 26-30 for the limit test at 5000 mg/kg). The selection of a sequential testing plan increases the statistical power, and a deliberate deviation from the limit test rejection procedure was made for compounds with an LD50 near the limit dose; i.e. committing an error on the side of caution. As with any limit test protocol, the probability of correct compound classification will decrease, as the actual LD50 value more closely resembles the limit dose.
• 1. Female Balb/c mice, which were 50-56 days postpartum, were used for the purposes of this experiment. • 2. Mice underwent a 1-week quarantine after being transported to the laboratory. • 3. The studied molecules (PER154A, PER160A, PER170A, PER176A) were suspended according to the TG425 protocol, i.e. 40 mg of substance in […] of laboratory corn oil and orally administered through a plastic gastro probe (used: 20ga (0.9 mm OD x 0.5 mm ID), 38 mm), which was suitable for the size of the animal (17-21 g). The mice were observed and weighed almost daily. • 4. Mouse housing conditions: up to 4 mice per cage; temperature: 23.2 - 23.40°C; humidity: 27.6 - 40.9% relative humidity. • 5. Two weeks later (time counted separately for each mouse), a resection was performed to analyze internal organs for any abnormalities.

Row | SMILES | influence on the signal transduction pathway (PER49 cell line) | safety in acute oral toxicity test (BALB/c mice)
1 | O=C(Nc1ccc2c(c1)OCCO2)c1ccc2c(c1)C1C3CCC(C3)C1C(c1ccccc1)N2 (stereo not shown) [PER154A] | No impact; also recorded: does not show any influence | safe and safe for mice
2 | O=C(Nc1ccc(F)cc1)c1ccc2c(c1)C1C3CCC(C3)C1C(c1ccccc1)N2 (stereo not shown) [PER160A] | No impact; also recorded: does not show any influence | safe for mice
